Data reported in PMC3454376, “Salidroside Improves Behavioral and Histological Outcomes and Reduces Apoptosis via PI3K/Akt Signaling after Experimental Traumatic Brain Injury” (PLoS ONE, 2012).

Tested on: mice subjected to controlled cortical impact injury
Assay: TUNEL staining of apoptotic cells
Assay type: in vivo
Details: 20 mg/kg ip 10 min after CCI; day 1; vehicle 57.8±6.4%; P<0.01
Protocol: All animal procedures were approved by the Animal Research Committee at Cheng Hsin General Hospital (Animal permit number […] 101-08), and all procedures complied with the Guide for the Care and Use of Laboratory Animals published by the US National Institutes of Health (NIH Publication No. 85-23, revised 1996). Animals were housed under a 12-h light/dark cycle and at constant temperature (21-25°C) and humidity (45-50%). They were allowed free access to pellet chow and water. TBI in mice was induced by a CCI injury model as previously described. Briefly, 8-week-old male C57BL/6 mice (weighing 22-25 g) were anesthetized through the use of intraperitoneal injection of sodium pentobarbital (65 mg/kg; Rhone Merieux, Harlow, UK) and placed in a stereotaxic frame. A 5 mm craniotomy was performed over the right parietal cortex, centered on the coronal suture and 0.1 mm lateral to the sagittal suture, and injury to dura was avoided. […] Body temperature was monitored throughout the surgery by a rectal probe; temperature was maintained at 37.0±0.5°C using a heated pad. […] To determine the optimal dose of salidroside, a pilot study was performed using 2 different doses (20 and 50 mg/kg) administered 10 min after injury, and neurological deficits and tissue damage were evaluated as the main outcomes. […]

## OC[C@H]1O[C@@H](OCCc2ccc(O)cc2)[C@H](O)[C@@H](O)[C@@H]1O [SALD, salidroside]
  TUNEL-positive cells (TUNEL-stained nuclei/DAPI-stained nuclei): 31.0±6.4%
